From ChEMBL document CHEMBL5360542, “Current development of β-carboline derived potential antimalarial scaffolds” (Eur J Med Chem, 2023)
Converted amounts (≈) assume the structure as drawn. Values belong to the molecule of their own block, whether it stands above or below them.

Assays:
Plasmodium falciparum [1] = assay: Antimalarial activity against artemisinin-sensitive parental Plasmodium falciparum 3D7 infected in O positive erythrocytes assessed as reduction in parasite growth incubated for 48 hrs by giemsa staining based assay; assay type: functional, organism-based; conditions: 3D7, Erythrocyte
Plasmodium falciparum [2] = assay: Antimalarial activity against artemisinin-resistant Plasmodium falciparum R539T infected in O positive erythrocytes assessed as reduction in parasite growth incubated for 48 hrs by giemsa staining based assay; assay type: functional, organism-based; conditions: Erythrocyte
Plasmodium falciparum [3] = assay: Antimalarial activity against chloroquine-sensitive Plasmodium falciparum 3D7 transfected in A positive human erythrocytes assessed as reduction in schizont maturation incubated for 48 hrs by giemsa stain based assay; assay type: functional, organism-based; conditions: 3D7, 48 h
Plasmodium falciparum [4] = assay: Antimalarial activity against chloroquine-resistant Plasmodium falciparum RKL-9 transfected in A positive human erythrocytes assessed as reduction in schizont maturation incubated for 48 hrs by giemsa stain based assay; assay type: functional, organism-based; conditions: RKL-9, 48 h
[5] = Selectivity index, ratio of IC50 for chloroquine-resistant Plasmodium falciparum RKL-9 transfected in A positive human erythrocytes to IC50 for chloroquine-sensitive Plasmodium falciparum 3D7 transfected in A positive human erythrocytes; assay type: functional
[6] = Cytotoxicity against human dermal fibroblast cultured as 2D cells assessed as inhibition of cell growth incubated for 48 hrs by MTT assay; assay type: toxicity, cell-based; conditions: human dermal fibroblasts cultured as 2D cells
Plasmodium berghei [7] = assay: (§1) Antiplasmodial activity against Plasmodium berghei NK-65 infected in Swiss albino mouse assessed as reduction of parasitaemia at 100 mg/kg, po administered once daily for 4 days followed by artesunate addition at 50 mg/kg for 60 mins and measured 24 hrs post last dose by giemsa staining based analysis relative to control; assay type: functional; parameters: scale not given: the % may be the effect or the level left; conditions: time 5 day
Plasmodium berghei [8] = assay: as §1, with “mean survival time” for “reduction”, “mouse” for “parasitaemia”, “analysis” for “analysis relative to control”; assay type: functional; conditions: time 5 day
Plasmodium falciparum [9] = assay: Antimalarial activity against chloroquine-sensitive Plasmodium falciparum […] assessed as reduction in parasite growth; assay type: functional, organism-based
Plasmodium falciparum [10] = assay: Antimalarial activity against chloroquine-sensitive Plasmodium falciparum 3D7 by SYBR green assay; assay type: functional, organism-based
Plasmodium falciparum [11] = assay: Antimalarial activity against Plasmodium falciparum NF54 infected in human erythrocytes assessed as reduction in parasitemia incubated for 48 hrs by [3H]-hypoxanthine based liquid scintillation counting analysis; conditions: NF54, Erythrocyte

SMILES: COc1ccc(C2NCCc3c2[nH]c2ccccc32)cc1OC (stereo not drawn)
IC50 (Plasmodium falciparum [1]): 3.03 µM
IC50 (Plasmodium falciparum [2]): 2.99 µM

SMILES: COC(=O)[C@@H]1Cc2c([nH]c3ccccc23)[C@@H](c2ccc3c(c2)OCO3)N1
IC50 (Plasmodium falciparum [3]): < 1 µg/mL
IC50 (Plasmodium falciparum [4]): < 1 µg/mL
Selectivity Index [5]: >10
CC50 at 48 h [6]: > 640 µg/mL
Activity (Plasmodium berghei [7]): 99.69%
Survival (Plasmodium berghei [8]): 25.8 days

SMILES: O=C(O)CCc1nccc2c1[nH]c1ccccc12
IC50 (Plasmodium falciparum [9]): 0.0767 µg/mL (≈ 0.319 µM)

IC50 (Plasmodium falciparum [10]): 5 µM
SMILES: O=C(c1c[nH]c2ccc(O)cc12)c1nccc2c1[nH]c1ccc(O[C@@H]3O[C@H](CO)[C@@H](O)[C@H](O)[C@H]3O)cc12

SMILES: Clc1cc(Cl)c(Cl)c(C2NCCc3c2[nH]c2ccccc32)c1 (stereo not drawn)
IC50 (Plasmodium falciparum [1]): 3.43 µM
IC50 (Plasmodium falciparum [2]): 4.89 µM

SMILES: C[C@H]1Cc2c([nH]c3cc(Cl)c(F)cc23)[C@@]2(N1)C(=O)Nc1ccc(Cl)cc12 [CIPARGAMIN]
IC50 (Plasmodium falciparum [11]): 0.0005 µM
